According to US10314815B2, “Polymorph of granaticin B” (Sloan-Kettering Institute for Cancer Research, priority 2014, dated 2019):

How the values were obtained:
Type in all cases: physicochemical
[1] = Stability of crystalline Form A compared with amorphous Compound 1; settings: crystalline Form A vs amorphous; traditional purification process
Hygroscopicity of Form A = assay: Hygroscopicity of Form A
[2] = UV-Vis pH-dependent colour change (bathochromic shift) of MSK-777; settings: colour change red to blue, basic conditions; read-out: approximate averaged pKa values of the acidic phenol protons (inflection point of colour change)
Text: These absorptions indicate a benzoisochromanequinones (BIQ) chromophore. The broad adsorption in the visible region (around 527 nm) is responsible for the intense red color of the substance.
Under basic conditions (pH>8) a bathochromic shift of Vis-absorption (ca. 40 nm) is observed, indicating ionization of slightly acidic phenolic protons. This pH dependent indicatory behavior is characteristic to the BIQ chromophore and is visually observed as the solution turns from red to blue.

[3] = Chemical degradation under acidic conditions observed by HPLC; settings: acidic conditions (pH<4), ambient temperature
Text: The degradation is caused by hydrolysis of the glycosidic bond, forming Granaticin A, the biosynthetic precursor of MSK-777. Consistently, in a time dependent HPLC experiment a simultaneous increase of Granaticin A chromatographic areas and decrease of Granaticin B areas is observed. The hydrolysis experiment and the almost identical UV spectra indicate that MSK-777 (Granaticin B) and Granatioin A share the same core structure and chromophore. Therefore the structural difference between Granaticin A and MSK-777 arises from a hydrolysable part (sugar moiety) of the latter compound.

Compound	stability of solid form [1]	hygroscopicity (Hygroscopicity of Form A)	pKa [2]	degradation (hydrolysis of the glycosidic bond forming Granaticin A) [3]
CC1OC2CC(=O)OC2C2=C1C(=O)c1c(O)c3c(c(O)c1C2=O)C1CC(OC2CCC(O)C(C)O2)C3(O)C(C)O1 (centres unmarked) [Amorphous Compound 1, granaticin B]	less stable and prone to degradation	–	–	–
CC1OC2CC(=O)OC2C2=C1C(=O)c1c(O)c3c(c(O)c1C2=O)C1CC(OC2CCC(O)C(C)O2)C3(O)C(C)O1 (centres unmarked) [Form A of Compound 1, granaticin B]	more stable than amorphous Compound 1	substantially non-hygroscopic	–	–
CC1OC2CC(=O)OC2C2=C1C(=O)c1c(O)c3c(c(O)c1C2=O)C1CC(OC2CCC(O)C(C)O2)C3(O)C(C)O1 (centres unmarked) [MSK-777, granaticin B]	–	–	~8.5	slow degradation
